The results in this text go back to patent publication US20150376172A1, “FLUORO-[1,3]OXAZINES AS BACE1 INHIBITORS” (HOFFMANN-LA ROCHE INC., priority 2013, published 2015).

Where a name gives a salt, the structure may show the parent alone.

What is called IC50 is the concentration needed to halve the response being measured.

T1 sequence (P56817 46-501): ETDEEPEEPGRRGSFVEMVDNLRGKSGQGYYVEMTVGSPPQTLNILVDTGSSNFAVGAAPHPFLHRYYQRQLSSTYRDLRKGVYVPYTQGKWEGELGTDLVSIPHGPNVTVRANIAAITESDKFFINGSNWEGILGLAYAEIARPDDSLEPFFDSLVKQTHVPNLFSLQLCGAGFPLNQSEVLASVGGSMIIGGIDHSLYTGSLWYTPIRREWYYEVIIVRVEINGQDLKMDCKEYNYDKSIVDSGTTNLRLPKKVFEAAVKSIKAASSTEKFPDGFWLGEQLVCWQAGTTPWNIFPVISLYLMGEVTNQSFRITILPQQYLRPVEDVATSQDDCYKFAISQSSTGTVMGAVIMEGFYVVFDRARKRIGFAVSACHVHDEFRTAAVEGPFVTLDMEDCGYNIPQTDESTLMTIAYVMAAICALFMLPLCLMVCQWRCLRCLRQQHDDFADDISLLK

This assay has as its target T1, BACE1 (Homo sapiens, UniProt P56817).
T1 construct: endogenous in cells; host or cells: HEK293 APP cells
Briefly: Cellular Aβ-lowering assay (Abeta 40 AlphaLISA). The following applies: HEK293 APP cells; 18-20 hrs incubation; Aβ 40 in culture supernatants by AlphaLISA; read-out: BACE1 cell act. Aβ40 IC50. Type of assay: cell-based. The procedure:
Cellular Aβ-lowering assay:
The Abeta 40 AlphaLISA Assay can be used. The HEK293 APP cells were seeded in 96 well Microtiter plates in cell culture medium (Iscove's, plus 10% (v/v) fetal bovine serum, penicillin/streptomycin) to about 80% confluency and the compounds were added at a 3× concentration in ⅓ volume of culture medium (final DMSO concentration was kept at 1% v/v). After 18-20 hrs incubation at 37° C. and 5% CO2 in a humidified incubator, the culture supernatants were harvested for the determination of Aβ 40 concentrations using Perkin-Elmer Human Amyloid beta 1-40 (high specificity) Kit (Cat#AL275C).
In a Perkin-Elmer White Optiplate-384 (Cat#6007290), 2 ul culture supernatants were combined with 2 μl of a 10× AlphaLISA Anti-hAβAcceptor beads+Biotinylated Antibody Anti-Aβ1-40 Mix (50 μg/mL/5 nM). After 1 hour room temperature incubation, 16 μl of a 1.25× preparation of Streptavidin (SA) Donor beads (25 μg/mL) were added and incubated for 30 minutes in the Dark. Light Emission at 615 nm was then recorded using EnVision-Alpha Reader. Levels of Aβ 40 in the culture supernatants were calculated as percentage of maximum signal (cells treated with 1% DMSO without inhibitor). The IC50 values were calculated using the Excel XLfit software.
For orientation: Bead proximity is the source of the signal in Alpha formats.
As for `C[C@@]1(c2cc(C#Cc3ncc(C#N)s3)ccc2F)C[C@@H](C(F)(F)F)OC(N)=N1` [Example 67, 2-((3-((4S,6S)-2-Amino-4-methyl-6-(trifluoromethyl)-5,6-dihydro-4H-1,3-oxazin-4-yl)-4-fluorophenyl)ethynyl)thiazole-5-carbonitrile], the 50% inhibitory concentration (IC50) amounted to 950 nM.

As for `NC1=N[C@](CF)(c2cc(C#Cc3ncc(Cl)cn3)ccc2F)C[C@@H](C(F)(F)F)O1` [Example 63, (4S,6S)-4-[5-[2-(5-Chloropyrimidin-2-yl)ethynyl]-2-fluorophenyl]-4-(fluoromethyl)-6-(trifluoromethyl)-5,6-dihydro-1,3-oxazin-2-amine], the 50% inhibitory concentration (IC50) was 430 nM. Then `Cc1cc(F)c([C@]2(C)C[C@@H](C(F)(F)F)OC(N)=N2)cc1-c1cnccc1F` [Example 73, (4S,6S)-4-(2-Fluoro-5-(4-fluoropyridin-3-yl)-4-methylphenyl)-4-methyl-6-(trifluoromethyl)-5,6-dihydro-4H-1,3-oxazin-2-amine], with 1300 nM; and `C[C@@]1(c2cc(-c3cccnc3F)cs2)C[C@@H](C(F)(F)F)OC(N)=N1` [Example 27, (4S,6S)-4-(4-(2-Fluoropyridin-3-yl)thiophen-2-yl)-4-methyl-6-(trifluoromethyl)-5,6-dihydro-4H-1,3-oxazin-2-amine Hydrochloride], with 1380 nM; and `CC#Cc1cncc(-c2ccc(F)c([C@]3(C)C[C@@H](C(F)(F)F)OC(N)=N3)c2)c1` [Example 14, (4S,6S)-4-(2-Fluoro-5-(5-(prop-1-ynyl)pyridin-3-yl)phenyl)-4-methyl-6-(trifluoromethyl)-5,6-dihydro-4H-1,3-oxazin-2-amine], with 250 nM. Consider `NC1=N[C@](CF)(c2cc(-c3nc4ccc(Cl)cc4o3)ccc2F)C[C@@H](C(F)(F)F)O1` [Example 45, (4S,6S)-4-(5-(6-Chlorobenzo[d]oxazol-2-yl)-2-fluorophenyl)-4-(fluoromethyl)-6-(trifluoromethyl)-5,6-dihydro-4H-1,3-oxazin-2-amine], for which the IC50 came to 1640 nM. For `CCn1cc(C#Cc2ccc(F)c([C@]3(CF)C[C@@H](C(F)(F)F)OC(N)=N3)c2)cn1` [Example 58, (4S,6S)-4-(5-((1-Ethyl-1H-pyrazol-4-yl)ethynyl)-2-fluorophenyl)-4-(fluoromethyl)-6-(trifluoromethyl)-5,6-dihydro-4H-1,3-oxazin-2-amine], the IC50 was found to be 25700 nM. For the molecule `N#Cc1ccc(C#Cc2ccc(F)c([C@]3(CF)C[C@@H](C(F)(F)F)OC(N)=N3)c2)cc1` [Example 60, 4-((3-((4S,6S)-2-Amino-4-(fluoromethyl)-6-(trifluoromethyl)-5,6-dihydro-4H-1,3-oxazin-4-yl)-4-fluorophenyl)ethynyl)benzonitrile], the concentration for half-maximal inhibition (IC50) amounted to 650 nM. Regarding `C[C@@]1(c2cc(C#Cc3cccnc3)ccc2F)C[C@@H](C(F)(F)F)OC(N)=N1` [Example 22, (4S,6S)-4-(2-Fluoro-5-(pyridin-3-ylethynyl)phenyl)-4-methyl-6-(trifluoromethyl)-5,6-dihydro-4H-1,3-oxazin-2-amine], the IC50 was determined as 470 nM. Regarding `C[C@@]1(c2cc(-c3cn(-c4ccc(C#N)cn4)nn3)ccc2F)C[C@@H](C(F)(F)F)OC(N)=N1` [Example 77, 6-(4-(3-((4S,6S)-2-Amino-4-methyl-6-(trifluoromethyl)-5,6-dihydro-4H-1,3-oxazin-4-yl)-4-fluorophenyl)-1H-1,2,3-triazol-1-yl)nicotinonitrile], the concentration for half-maximal inhibition (IC50) came to 180 nM. As for `N#Cc1ccc(C#Cc2ccc(F)c([C@]3(CF)C[C@@H](C(F)(F)F)OC(N)=N3)c2)nc1` [Example 62, 6-((3-((4S,6S)-2-Amino-4-(fluoromethyl)-6-(trifluoromethyl)-5,6-dihydro-4H-1,3-oxazin-4-yl)-4-fluorophenyl)ethynyl)nicotinonitrile], the IC50 was determined as 400 nM.

Take `CC#Cc1cncc(-c2csc([C@]3(C)C[C@@H](C(F)(F)F)OC(N)=N3)c2)c1` [Example 29, (4S,6S)-4-Methyl-4-(4-(5-(prop-1-ynyl)pyridin-3-yl)thiophen-2-yl)-6-(trifluoromethyl)-5,6-dihydro-4H-1,3-oxazin-2-amine Hydrochloride]: the IC50 was found to be 310 nM. On to `C[C@]1(c2cc(NC(=O)c3ccc(C#N)cn3)ccc2F)N=C(N)O[C@@H](C(F)(F)F)[C@@H]1F` [Example 1, N-(3-((4R,5R,6R)-2-Amino-5-fluoro-4-methyl-6-(trifluoromethyl)-5,6-dihydro-4H-1,3-oxazin-4-yl)-4-fluorophenyl)-5-cyanopicolinamide], for which the IC50 worked out at 150 nM.

On to `C[C@@]1(c2cc(-c3cncnc3)c(F)cc2F)C[C@@H](C(F)(F)F)OC(N)=N1` [Example 17, (4S,6S)-4-(2,4-Difluoro-5-(pyrimidin-5-yl)phenyl)-4-methyl-6-(trifluoromethyl)-5,6-dihydro-4H-1,3-oxazin-2-amine], for which the IC50 turned out to be 190 nM. As for `C[C@@]1(c2cc(C#Cc3nn(C(F)F)cc3Cl)ccc2F)C[C@@H](C(F)(F)F)OC(N)=N1` [Example 68, (4S,6S)-4-(5-((4-chloro-1-(difluoromethyl)-1H-pyrazol-3-yl)ethynyl)-2-fluorophenyl)-4-methyl-6-(trifluoromethyl)-5,6-dihydro-4H-1,3-oxazin-2-amine], the IC50 was 160 nM.

Consider `C[C@@]1(c2cc(NC(=O)c3ccc(C#N)cn3)cs2)C[C@@H](C(F)(F)F)OC(N)=N1` [Example 35, N-(5-((4S,6S)-2-Amino-4-methyl-6-(trifluoromethyl)-5,6-dihydro-4H-1,3-oxazin-4-yl)thiophen-3-yl)-5-cyanopicolinamide], for which the IC50 was determined as 88 nM. The figure for `COc1ncc(C#Cc2ccc(F)c([C@]3(C)C[C@@H](C(F)(F)F)OC(N)=N3)c2)cn1` [Example 53, (4S,6S)-4-[2-fluoro-5-[2-(2-methoxypyrimidin-5-yl)ethynyl]phenyl]-4-methyl-6-(trifluoromethyl)-5,6-dihydro-1,3-oxazin-2-amine] is 5650 nM; for `C[C@]1(c2cc(NC(=O)c3cnc(C(F)F)cn3)ccc2F)N=C(N)O[C@H](C(F)(F)F)[C@@H]1F` [Example 6, N-(3-((4R,5R,6S)-2-Amino-5-fluoro-4-methyl-6-(trifluoromethyl)-5,6-dihydro-4H-1,3-oxazin-4-yl)-4-fluorophenyl)-5-(difluoromethyl)pyrazine-2-carboxamide] it is 58 nM; for `C[C@@]1(c2sc(-c3cncc(C#N)c3)cc2Cl)C[C@@H](C(F)(F)F)OC(N)=N1` [Example 31, 5-(5-((4S,6S)-2-Amino-4-methyl-6-(trifluoromethyl)-5,6-dihydro-4H-1,3-oxazin-4-yl)-4-chlorothiophen-2-yl)nicotinonitrile] it is 340 nM. Then `CC#Cc1cncc(-c2cc(Cl)c([C@]3(C)C[C@@H](C(F)(F)F)OC(N)=N3)s2)c1` [Example 30, (4S,6S)-4-(3-Chloro-5-(5-(prop-1-ynyl)pyridin-3-yl)thiophen-2-yl)-4-methyl-6-(trifluoromethyl)-5,6-dihydro-4H-1,3-oxazin-2-amine], with 620 nM. Regarding `C[C@@]1(c2cc(NC3CCc4cc(C#N)cnc43)ccc2F)C[C@@H](C(F)(F)F)OC(N)=N1` (stereo partly drawn) [Example 36, 7-(3-((4S,6S)-2-Amino-4-methyl-6-(trifluoromethyl)-5,6-dihydro-4H-1,3-oxazin-4-yl)-4-fluorophenylamino)-6,7-dihydro-5H-cyclopenta[b]pyridine-3-carbonitrile], the half-inhibitory concentration (IC50) is 33 nM.
